Laboratory results reported in ChEMBL document CHEMBL4152338, “Design, synthesis and screening of 1, 2, 4-triazinone derivatives as potential antitumor agents with apoptosis inducing activity on MCF-7 breast cancer cell line” (Eur J Med Chem, 2018).
The source made the active and inactive calls. The rule behind the calls is not given here.

Assays:
MCF7 [1] = assay: Antiproliferative activity against human MCF7 cells after 48 hrs by MTT assay; format: functional, cell-based; details: MCF7, 48 h
MCF7 [2] = assay: Induction of apoptosis in human MCF7 cells assessed as early apoptotic cells at IC50 after 24 hrs by annexin V/FITC-propidium iodide staining-based flow cytometric method (reference value: 0.72%); format: functional
MCF7 [3] = assay: Upregulation of Bax level in human MCF7 cells at IC50 incubated for 24 hrs by ELISA relative to control; format: functional
DNA topoisomerase 2-beta [4] = target: T1, DNA topoisomerase 2-beta (Homo sapiens, UniProt Q02880); assay: Inhibition of human DNA topoisomerase 2beta after 2 hrs by ELISA
T1 sequence (Q02880 whole entry): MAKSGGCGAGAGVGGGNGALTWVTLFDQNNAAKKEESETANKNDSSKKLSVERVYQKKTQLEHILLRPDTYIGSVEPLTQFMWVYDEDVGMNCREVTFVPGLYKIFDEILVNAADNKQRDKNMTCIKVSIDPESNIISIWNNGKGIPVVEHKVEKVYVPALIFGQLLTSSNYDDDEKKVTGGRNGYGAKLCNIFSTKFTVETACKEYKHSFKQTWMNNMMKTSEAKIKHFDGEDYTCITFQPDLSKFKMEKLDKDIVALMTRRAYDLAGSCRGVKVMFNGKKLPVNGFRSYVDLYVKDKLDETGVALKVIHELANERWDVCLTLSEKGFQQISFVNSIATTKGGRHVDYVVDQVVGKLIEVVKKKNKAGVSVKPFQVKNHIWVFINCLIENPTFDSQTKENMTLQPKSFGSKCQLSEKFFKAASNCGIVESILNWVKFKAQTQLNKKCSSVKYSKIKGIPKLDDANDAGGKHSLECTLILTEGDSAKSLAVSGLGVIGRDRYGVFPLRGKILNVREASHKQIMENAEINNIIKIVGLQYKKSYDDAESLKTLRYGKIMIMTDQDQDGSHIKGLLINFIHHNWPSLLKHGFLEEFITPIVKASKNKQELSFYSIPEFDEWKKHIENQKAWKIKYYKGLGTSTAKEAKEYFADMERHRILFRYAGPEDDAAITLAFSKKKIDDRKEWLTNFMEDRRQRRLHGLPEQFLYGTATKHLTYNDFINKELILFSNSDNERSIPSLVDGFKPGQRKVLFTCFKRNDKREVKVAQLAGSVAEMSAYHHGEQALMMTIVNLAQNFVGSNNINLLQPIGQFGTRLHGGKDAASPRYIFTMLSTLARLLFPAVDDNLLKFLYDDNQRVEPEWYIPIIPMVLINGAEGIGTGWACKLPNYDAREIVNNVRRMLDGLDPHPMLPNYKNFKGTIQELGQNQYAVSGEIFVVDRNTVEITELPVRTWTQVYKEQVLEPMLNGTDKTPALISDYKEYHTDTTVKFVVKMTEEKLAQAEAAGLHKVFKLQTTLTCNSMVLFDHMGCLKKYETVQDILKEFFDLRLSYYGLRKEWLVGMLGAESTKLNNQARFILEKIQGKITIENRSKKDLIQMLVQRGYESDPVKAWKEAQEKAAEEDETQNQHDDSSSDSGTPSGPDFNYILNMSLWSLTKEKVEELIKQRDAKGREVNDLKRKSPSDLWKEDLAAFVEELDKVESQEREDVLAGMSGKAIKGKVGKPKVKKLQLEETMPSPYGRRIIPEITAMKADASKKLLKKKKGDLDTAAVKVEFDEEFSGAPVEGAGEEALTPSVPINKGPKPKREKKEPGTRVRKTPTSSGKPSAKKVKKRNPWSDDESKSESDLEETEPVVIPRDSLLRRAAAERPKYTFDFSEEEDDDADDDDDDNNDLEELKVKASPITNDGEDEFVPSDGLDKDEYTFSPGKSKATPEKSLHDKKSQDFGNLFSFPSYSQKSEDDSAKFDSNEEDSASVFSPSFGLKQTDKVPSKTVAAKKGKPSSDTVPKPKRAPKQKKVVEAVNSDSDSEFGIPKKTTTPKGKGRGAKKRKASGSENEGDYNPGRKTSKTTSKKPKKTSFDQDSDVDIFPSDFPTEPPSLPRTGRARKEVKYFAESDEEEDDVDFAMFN

DNA topoisomerase 2-beta [5] = target: T1, DNA topoisomerase 2-beta; assay: Potency index, ratio of etopside IC50 to compound IC50 for topoisomerase 2beta in human MCF7 cells; format: cell-based
MCF7 [6] = assay: Upregulation of p53 level in human MCF7 cells at IC50 incubated for 24 hrs by ELISA relative to control; format: functional
MCF7 [7] = assay: Inhibition of tubulin beta polymerization in human MCF7 cells at IC50 after 18 to 24 hrs by spectrophotometric method relative to control; format: cell-based
MCF7 [8] = assay: Upregulation of caspase3/7 level in human MCF7 cells at IC50 assessed as caspase 3/7 green fluorescence incubated for 24 hrs by green flow cytometric analysis (reference value: 0.49%); format: functional
MCF7 [9] = assay: Induction of apoptosis in human MCF7 cells assessed as necrotic cells at IC50 after 24 hrs by annexin V/FITC-propidium iodide staining-based flow cytometric method (reference value: 0.53%); format: functional
MCF7 [10] = assay: Cell cycle arrest in human MCF7 cells assessed as accumulation at G2 phase at IC50 after 24 hrs by propidium iodide staining-based flow cytometric analysis; format: functional
MCF7 [11] = assay: Cell cycle arrest in human MCF7 cells assessed as increase in accumulation at G0 phase at IC50 after 24 hrs by propidium iodide staining-based flow cytometric analysis; format: functional
MCF7 [12] = assay: Cell cycle arrest in human MCF7 cells assessed as decrease in accumulation at G1 phase at IC50 after 24 hrs by propidium iodide staining-based flow cytometric analysis; format: functional
MCF7 [13] = assay: Potency index, ratio of podophyllotoxin IC50 to compound IC50 for human MCF7 cells; format: functional
[14] = Antiproliferative activity against human Hs 371.T cells after 48 hrs by MTT assay; format: cell-based
MCF7 [15] = assay: Increase in Bax/Bcl-2 ratio in human MCF7 cells at IC50 incubated for 24 hrs by ELISA; format: functional, cell-based
MCF7 [16] = assay: Induction of apoptosis in human MCF7 cells assessed as viable cells at IC50 after 24 hrs by annexin V/FITC-propidium iodide staining-based flow cytometric method (reference value: 96.57%); format: functional
MCF7 [17] = assay: Upregulation of caspase3/7 level in human MCF7 cells at IC50 incubated for 24 hrs by green flow cytometric analysis relative to control; format: functional
MCF7 [18] = assay: Upregulation of p53 level in human MCF7 cells at IC50 incubated for 24 hrs by ELISA relative to podophyllotoxin; format: functional
MCF7 [19] = assay: Down regulation of Bcl-2 level in human MCF7 cells at IC50 incubated for 24 hrs by ELISA; format: functional, cell-based
MCF7 [20] = assay: Induction of apoptosis in human MCF7 cells assessed as late apoptotic cells at IC50 after 24 hrs by annexin V/FITC-propidium iodide staining-based flow cytometric method (reference value: 0.34%); format: functional
MCF7 [21] = assay: Potency index, ratio of ratio of compound effect to podophyllotoxin efect for induction of apoptosis in human MCF7 cells; format: functional
MCF7 [22] = assay: Potency index, ratio of ratio of compound effect to podophyllotoxin efect for cell cycle arrest in human MCF7 cells assessed as increase in cell percentage at G0 phase at IC50 after 24 hrs by propidium iodide staining-based flow cytometric analysis; format: functional

SMILES | IC50 (MCF7 [1]) [µM] | Activity (MCF7 [2]) [%] | inhibition (MCF7 [7]) [%] | Activity (MCF7 [8]) [%] | Activity (MCF7 [9]) [%] | IC50 [14] [µM] | Activity (MCF7 [20]) [%] | further results
COc1ccc(C2=N/C(=C\c3cc(Br)cc(Br)c3OC(C)=O)C(=O)NN2c2ncc(-c3ccccc3)s2)cc1OC | 4.33 | – | – | – | – | – | – | –
COc1ccc(C2=N/C(=C\c3cc(Br)cc(Br)c3OC(C)=O)C(=O)n3c(C)nc(=S)n32)cc1OC | 6.84 | – | – | – | – | – | – | –
COc1cc(C2=N/C(=C\c3cc(Br)cc(Br)c3OC(C)=O)C(=O)NN2c2ncc(-c3ccccc3)s2)cc(OC)c1OC | 0.41 | 3.64 | 55.2 | 7.79 | 3.31 | 77.4 | 6.33 | fold change (FC) (MCF7 [3]): 3.4; IC50 (DNA topoisomerase 2-beta [4]): 0.00685 µM; Ratio IC50 (DNA topoisomerase 2-beta [5]): 10.2; fold change (FC) (MCF7 [6]): 9.2; Activity (MCF7 [10]): Active; Activity (MCF7 [11]): Active; Activity (MCF7 [12]): Active; Ratio IC50 (MCF7 [13]): 6; Activity (MCF7 [15]): Active; Activity (MCF7 [16]): 84.46%; fold change (FC) (MCF7 [17]): 15.6; fold change (FC) (MCF7 [18]): 1.75; Activity (MCF7 [19]): Active
COc1cc(C2=N/C(=C\c3cc(Br)cc(Br)c3OC(C)=O)C(=O)NN2c2ccccc2)cc(OC)c1OC | 0.35 | 5.47 | 33.4 | 11.28 | 3.14 | 44.3 | 7.85 | fold change (FC) (MCF7 [3]): 3.9; IC50 (DNA topoisomerase 2-beta [4]): 0.0126 µM; Ratio IC50 (DNA topoisomerase 2-beta [5]): 5.3; fold change (FC) (MCF7 [6]): 1.9; Ratio (MCF7 [21]): 1.5; Activity (MCF7 [10]): Active; Activity (MCF7 [11]): Active; Activity (MCF7 [12]): Active; Ratio IC50 (MCF7 [13]): 6; Activity (MCF7 [15]): Active; Ratio (MCF7 [22]): 1.4; Activity (MCF7 [16]): 81.41%; fold change (FC) (MCF7 [17]): 18; fold change (FC) (MCF7 [18]): 2.1; Activity (MCF7 [19]): Active
COc1cc(C2=N/C(=C\c3cc(Br)cc(Br)c3OC(C)=O)C(=O)NN2c2ncc(-c3ccc(Br)cc3)s2)cc(OC)c1OC | 3.16 | – | – | – | – | – | – | –
COc1cc(C2=N/C(=C\c3cc(Br)cc(Br)c3OC(C)=O)C(=O)NN2C(N)=S)cc(OC)c1OC | 0.36 | 4.78 | 44.4 | 8.69 | 3.66 | 61.3 | 10.88 | fold change (FC) (MCF7 [3]): 3.2; IC50 (DNA topoisomerase 2-beta [4]): 0.0317 µM; Ratio IC50 (DNA topoisomerase 2-beta [5]): 2.2; fold change (FC) (MCF7 [6]): 8.1; Ratio (MCF7 [21]): 1.25; Activity (MCF7 [10]): Active; Activity (MCF7 [11]): Active; Activity (MCF7 [12]): Active; Ratio IC50 (MCF7 [13]): 6; Activity (MCF7 [15]): Active; Activity (MCF7 [16]): 78.79%; fold change (FC) (MCF7 [17]): 21.6; fold change (FC) (MCF7 [18]): 1.7; Activity (MCF7 [19]): Active
CC(=O)Oc1c(Br)cc(Br)cc1/C=C(/NC(=O)c1ccccc1)C(=O)NNC(N)=S | 16.8 | – | – | – | – | – | – | –
COc1cc(C2=N/C(=C\c3cc(Br)cc(Br)c3OC(C)=O)C(=O)n3c(C)nc(=S)n32)cc(OC)c1OC | 3.07 | 3.38 | 88.2 | 7.58 | 1.73 | 58.7 | 4.53 | fold change (FC) (MCF7 [3]): 0.9; IC50 (DNA topoisomerase 2-beta [4]): 0.11 µM; fold change (FC) (MCF7 [6]): 5.1; Activity (MCF7 [16]): 88.4%; fold change (FC) (MCF7 [17]): 31.3; Activity (MCF7 [19]): Active
COc1cc(C(=O)N/C(=C/c2cc(Br)cc(Br)c2OC(C)=O)C(=O)NNC(N)=S)cc(OC)c1OC | 2.85 | 4.66 | 62.3 | 6.91 | 2.11 | – | 5.62 | fold change (FC) (MCF7 [3]): 2.2; IC50 (DNA topoisomerase 2-beta [4]): 0.0814 µM; fold change (FC) (MCF7 [6]): 4.2; Activity (MCF7 [15]): Active; fold change (FC) (MCF7 [17]): 24.1; Activity (MCF7 [19]): Active
COc1ccc(C2=N/C(=C\c3cc(Br)cc(Br)c3OC(C)=O)C(=O)NN2c2ccccc2)cc1OC | 5.39 | – | – | – | – | – | – | –
COc1cc([C@@H]2c3cc4c(cc3[C@H](O)[C@H]3COC(=O)[C@H]23)OCO4)cc(OC)c1OC [PODOFILOX] | 2.21 | 4.19 | 96.3 | 7.58 | 2.06 | 22.4 | 7.02 | Activity (MCF7 [16]): 84.61%
COc1ccc(C2=N/C(=C\c3cc(Br)cc(Br)c3OC(C)=O)C(=O)NN2C(N)=S)cc1OC | 13.4 | – | – | – | – | – | – | –
CC(=O)Oc1c(Br)cc(Br)cc1/C=C1\N=C(c2ccccc2)N(C(N)=S)NC1=O | 28.5 | – | – | – | – | 80.1 | – | –
CC(=O)Oc1c(Br)cc(Br)cc1/C=C1\N=C(c2ccccc2)N(c2ccccc2)NC1=O | 19.4 | – | – | – | – | – | – | –
CC(=O)Oc1c(Br)cc(Br)cc1/C=C1\N=C(c2ccccc2)N(c2ncc(-c3ccc(Br)cc3)s2)NC1=O | 9.49 | – | – | – | – | – | – | –
COc1ccc(C2=N/C(=C\c3cc(Br)cc(Br)c3OC(C)=O)C(=O)NN2c2ncc(-c3ccc(Br)cc3)s2)cc1OC | 3.28 | – | – | – | – | – | – | –
COc1ccc(C(=O)N/C(=C/c2cc(Br)cc(Br)c2OC(C)=O)C(=O)NNC(N)=S)cc1OC | 8.97 | – | – | – | – | – | – | –
CC(=O)Oc1c(Br)cc(Br)cc1/C=C1\N=C(c2ccccc2)n2c(=S)nc(C)n2C1=O | > 100 | – | – | – | – | – | – | –
CC(=O)Oc1c(Br)cc(Br)cc1/C=C1\N=C(c2ccccc2)N(c2ncc(-c3ccccc3)s2)NC1=O | 38.3 | – | – | – | – | – | – | –
